Data as given in patent publication US20070218016A1, “Use of Aroma Substance Mixtures as Agents Against Bad Breath” (SYMRISE GMBH & CO. KG, priority 2004, published 2007).

Test system: sterile liquid medium inoculated with fresh morning saliva
Assay: In vitro test for reduction of bad breath (inoculated medium smelled by a panel of testers)
Type: cell-based
Settings: 0.05% added to inoculated samples, incubated at 37° C. for some days
Description: In Vitro Test for Reduction of Bad Breath
The test is based on the work of Goldberg and Rosenberg (Production of Oral Malodor in an in vitro System, S. Goldberg and M. Rosenberg, pp. 143-150, in: Bad Breath—A Multidisciplinary Approach, eds: D. van Steenberghe, M. Rosenberg, Leuven University Press, 1996) and was adapted for better reproducibility.
A sterile liquid medium inoculated with fresh morning saliva is incubated at 37° C. for some days and then smelled by a panel of testers.
An intensive, typical bad breath odour had formed. Non-inoculated controls have only a weak smell of the medium.
Triclosan® (5-chloro-2-(2,4-dichlorophenoxy)phenol) was added to inoculated samples in a concentration of 0.05% as a control for the tests.
By addition of in each case 0.01% of the mixtures E-1 to E-6 according to the invention (see Table 1) to inoculated samples, no smell—analogously to Triclosan®—was to be found after the incubation time. This value also corresponds to the minimum active concentration.
If 0.05% of a mixture according to the invention is added to the inoculated medium only one hour before the sensory evaluation, an unpleasant mixed smell of bad breath and a weak note of the mixture according to the invention is to be observed.

Oc1cc(Cl)ccc1Oc1ccc(Cl)cc1Cl [Triclosan, 5-chloro-2-(2,4-dichlorophenoxy)phenol]
smell after the incubation: same weak smell of the medium as the non-inoculated samples
